This is an account of results in patent EP0932613B1, “BLOCKING EXPRESSION OF VIRULENCE FACTORS IN S. AUREUS” (NEW YORK UNIVERSITY, priority 1996, dated 2005).

The subject of assay [1] is RNAIII transcription. In words: RNAIII transcription activation/inhibition assay (Ji et al. 1995), strain RN6390B. Type of assay: cell-based. The conditions noted are these: purified peptide; S. aureus strain RN6390B; Figure 3. On the procedure: (§1) The purified activator peptide was then analyzed for its ability activate and inhibit RNAIII transcription of S. aureus strains RN6390B, RN6607 and RN8463, as described in Ji, G., et al. PNAS USA 92:12055-12059 (1995).
(§2) The purified peptide were then analyzed for their ability activate and inhibit RNAIII transcription of S. aureus strains RN6390B, RN6607 and RN8463, as described in Ji, G., et al. PNAS USA 92:12055-12059 (1995).

For assay [2], the system named is RNAIII transcription. In words: RNAIII transcription activation/inhibition assay (Ji et al. 1995), strain RN6607. Type of assay: cell-based. The conditions noted are these: purified peptide; S. aureus strain RN6607; Figure 3. The protocol:
as §1, §2

Assay [3] relates to RNAIII transcription. The experiment in a line: RNAIII transcription activation/inhibition assay (Ji et al. 1995), strain RN8463. It counts as cell-based. The conditions noted are these: purified peptide; S. aureus strain RN8463; Figure 3. On the procedure: as §1, §2
A further assay deals with agr locus. To be noted: PNAS 92:12055-12059 (1995); cited from earlier work.
The test system of assay [4] is RNAIII transcription. The experiment in a line: Effect of S. lugdunensis pheromone on RNAIII transcription of various S. aureus strains (Northern blot). To be noted: 37°C for 30 minutes; strains grown to 60 Klett units for inhibition assays; Figures 4A and 4B. It counts as cell-based. On the procedure:
The purified S. lugdunensis pheromone was then analyzed for its ability activate and inhibit RNAIII transcription of various S. aureus strains. S. aureus strains were grown to 30 Klett units (for activation assays) and to 60 Klett units (for inhibition assays). The purified S . lugdunensis pheromone was added and the mixtures were incubated at 37°C for 30 minutes. Whole cell lysates were prepared from these cultures and analyzed by Northern blot hybridization using a RN6390B RNAIII-specific probe.

The structures appear in SMILES notation. Where a SMILES comes first, the peptide text is derived from it. Bridges are numbered along the chain shown (N, C = ends).

With `CC[C@H](C)[C@@H]1NC(=O)[C@H](Cc2ccccc2)NC(=O)[C@H](CC(=O)O)NC(=O)[C@@H](NC(=O)[C@@H](NC(=O)[C@H](CO)NC(=O)[C@@H](N)Cc2ccc(O)cc2)[C@@H](C)O)CSC(=O)[C@H](CCSC)NC1=O` [activator peptide, Tyr-Ser-Thr-Cys-Asp-Phe-Ile-Met] (H-YSTCDFIM; thioester 4-C), the “effect on RNAIII transcription” value in the assay on RNAIII transcription [1] is “activator effect”; with RNAIII transcription [2], “inhibitor effect”; in the assay with RNAIII transcription [3], “inhibitor effect”. The “expression of the agr locus” value in the assay with agr locus is on record as “activate”.

As for `CC[C@H](C)[C@H](NC(=O)[C@@H](N)Cc1ccc(O)cc1)C(=O)N[C@@H](CC(N)=O)C(=O)N[C@H]1CSC(=O)[C@H](CC(C)C)NC(=O)[C@H](CC(C)C)NC(=O)[C@H](Cc2ccccc2)NC(=O)[C@H](CC(=O)O)NC1=O` [peptide from RN8463, Tyr-Ile-Asn-Cys-Asp-Phe-Leu-Leu] (H-YINCDFLL; thioester 4-C), the entries for the “effect on RNAIII transcription” value in the assay on RNAIII transcription [1], in the assay with RNAIII transcription [2] and in the assay with RNAIII transcription [3] were “inhibitor effect”, “inhibitor effect” and “activator effect”, respectively.

Turning to `CC[C@H](C)[C@H](NC(=O)[C@@H](N)CC(=O)O)C(=O)N[C@H]1CSC(=O)[C@H](Cc2ccccc2)NC(=O)[C@H](Cc2ccc(O)cc2)NC(=O)[C@H](C)NC(=O)[C@H](CC(N)=O)NC1=O` [S. lugdunensis pheromone, Asp-Ile-Cys-Asn-Ala-Tyr-Phe] (H-DICNAYF; thioester 3-C), the “S. aureus strains tested in which the agr response is inhibited” value in the assay with RNAIII transcription [4] is on record as 5 of 6.

Regarding `CC(C)C[C@@H]1NC(=O)[C@H](CO)NC(=O)[C@H](CO)NC(=O)[C@@H](NC(=O)[C@H](C)NC(=O)[C@H](CC(N)=O)NC(=O)[C@@H](NC(=O)CN)C(C)C)CSC(=O)[C@H](Cc2ccccc2)NC1=O` [peptide from RN6607, Gly-Val-Asn-Ala-Cys-Ser-Ser-Leu-Phe] (H-GVNACSSLF; thioester 5-C), the “effect on RNAIII transcription” value is recorded as “inhibitor effect” in the assay on RNAIII transcription [1], “activator effect” with RNAIII transcription [2] and “inhibitor effect” in the assay with RNAIII transcription [3].
